In PubChem BioAssay (NCI):
Values joined by “and” are separate entries in the source; they are usually repeats but may differ in a detail not shown here. Identical values can stand only once.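 The compound was tested at five concentrations on cells cultured in 96-well plates, with a 48-hour exposure period. GI50 is the concentration that inhibits growth by half. TGI: concentration producing complete growth inhibition.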

Legend:
Test in all cases: NCI anticancer screen, dose series, 48 h
KM20L2 colon = test system: KM20L2 colon
PC-3 prostate = test system: PC-3 prostate
A549 NSCLC = test system: A549 NSCLC
OVCAR-8 ovarian = test system: OVCAR-8 ovarian
MDA-MB-231 breast = test system: MDA-MB-231 breast
U251 CNS = test system: U251 CNS
DLD-1 colon = test system: DLD-1 colon
A498 renal = test system: A498 renal
UO-31 renal = test system: UO-31 renal
DMS 273 small cell lung = test system: DMS 273 small cell lung
SNB-78 CNS = test system: SNB-78 CNS
MOLT-4 leukemia = test system: MOLT-4 leukemia

Structure (SMILES): O=C1NC2(CCCCC2)C(=O)N1CCN(CCCl)CCCl
- TGI (KM20L2 colon): > 194 µM
- TGI (PC-3 prostate): > 25 µM
- GI50 (A549 NSCLC): > 25 µM
- TGI (A549 NSCLC): > 250 µM
- GI50 (OVCAR-8 ovarian): > 25 µM
- TGI (OVCAR-8 ovarian): > 25 µM and 173 µM
- TGI (MDA-MB-231 breast): > 25 µM
- GI50 (U251 CNS): > 25 µM
- TGI (U251 CNS): > 250 µM
- TGI (DLD-1 colon): > 250 µM
- GI50 (A498 renal): > 25 µM
- TGI (A498 renal): > 250 µM
- GI50 (UO-31 renal): > 25 µM
- TGI (UO-31 renal): > 250 µM
- TGI (DMS 273 small cell lung): > 223 µM
- TGI (SNB-78 CNS): > 245 µM
- GI50 (MOLT-4 leukemia): 7.1 µM
- TGI (MOLT-4 leukemia): 22.5 µM and 196 µM

Structure (SMILES): Cc1ccc(N=C2N=C(N3CC(C)OC(C)C3)c3ccccc32)cc1 (stereo not drawn)
- TGI (KM20L2 colon): > 100 µM
- TGI (A549 NSCLC): > 100 µM
- TGI (OVCAR-8 ovarian): > 100 µM
- TGI (U251 CNS): > 100 µM
- TGI (DLD-1 colon): > 100 µM
- TGI (A498 renal): 90.1 µM
- TGI (UO-31 renal): 54.2 µM
- TGI (DMS 273 small cell lung): 77.1 µM
- TGI (SNB-78 CNS): > 100 µM
- TGI (MOLT-4 leukemia): 47.8 µM

Structure (SMILES): COc1c(I)c(OC)c2c(c1I)O[C@@H]1OCC[C@H]21
- TGI (KM20L2 colon): > 100 µM
- TGI (A549 NSCLC): > 100 µM
- TGI (OVCAR-8 ovarian): > 100 µM
- TGI (U251 CNS): > 100 µM
- TGI (DLD-1 colon): > 100 µM
- TGI (A498 renal): 86 µM
- TGI (UO-31 renal): 66.3 µM
- TGI (DMS 273 small cell lung): 56.5 µM
- TGI (SNB-78 CNS): > 100 µM
- TGI (MOLT-4 leukemia): 54.4 µM

Structure (SMILES): Cc1ccc(/C=C/C(=O)c2sc(-n3nc(-c4ccccc4)cc3-c3ccccc3)nc2C)cc1
- TGI (KM20L2 colon): > 100 µM
- TGI (A549 NSCLC): > 100 µM
- TGI (OVCAR-8 ovarian): > 100 µM
- TGI (U251 CNS): > 100 µM
- TGI (DLD-1 colon): > 100 µM
- TGI (A498 renal): > 100 µM
- TGI (UO-31 renal): > 100 µM
- TGI (DMS 273 small cell lung): > 100 µM
- TGI (SNB-78 CNS): > 100 µM
- TGI (MOLT-4 leukemia): > 100 µM
